The values below come from US8937193B2, “Apogossypolone derivatives as anticancer agents” (Sanford-Burnham Medical Research Institute, priority 2009, dated 2015).

Like-named read-outs stand apart in the source and are kept apart here.

Experiment in data set [1]: not given
This is another data set of the same source.

The nature of data set [2]: EC50 values of FIG. 3(B). The following applies: test not named.
The format of data set [3] is physicochemical. The source says: The chemical stability of solid compounds may be evaluated at room temperature. The stability of the compound was monitored using a combination of HPLC and LCMS.
The target in data set [4] is Bfl-1 (Homo sapiens (Human), UniProt Q16548). Description: Fluorescence polarization competitive binding assay (FPA), Bfl-1. The following applies: displacement of BH3 peptide. In general terms: Fluorescence polarisation rises when a labelled molecule tumbles more slowly, as on binding a larger partner.
Description: (§3) For competitive binding assays, 100 nM GST-BCL-XL ΔTM protein was preincubated with the tested compound at varying concentrations in 47.5 μL PBS (pH=7.4) in 96-well black plates at room temperature for 10 min, then 2.5 μL of 100 nM FITC-labeled Bak BH3 peptide was added to produce a final volume of 50 μL. The wild-type and mutant Bak BH3 peptides were included in each assay plate as positive and negative controls, respectively. After 30 min incubation at room temperature, the polarization values in millipolarization units were measured at excitation/emission wavelengths of 480/535 nm with a multilabel plate reader (PerkinElmer). IC50 was determined by fitting the experimental data to a sigmoidal dose-response nonlinear regression model (SigmaPlot 10.0.1, Systat Software, Inc., San Jose, Calif., USA). Data reported are mean of three independent experiments±standard error (SE). […] Fluorescence polarization was measured after 10 min.
Data set [5] deals with T1, Bcl-XL (Homo sapiens (Human), UniProt Q07817). In words: Fluorescence polarization competitive binding assay (FPA), Bcl-XL. The following applies: displacement of BH3 peptide.
Target sequence in this assay (Q07817 1-211): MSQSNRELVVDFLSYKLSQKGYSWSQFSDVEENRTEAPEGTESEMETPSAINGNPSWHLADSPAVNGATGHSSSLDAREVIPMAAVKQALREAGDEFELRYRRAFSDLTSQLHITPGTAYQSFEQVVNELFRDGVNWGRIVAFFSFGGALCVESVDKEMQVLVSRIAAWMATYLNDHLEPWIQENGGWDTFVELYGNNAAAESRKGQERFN
Description: as §3
Data set [6] in a line: In vitro plasma stability. The following applies: for Plasma Stability (T = 40 mins): Table 4.
Excerpt: (§4) To test the pharmacological properties of the compounds of Formula I, the in vitro plasma stability, microsomal stability, and cell membrane permeability may be determined.
For data set [7], the system named is PPC-1 xenograft tumors. In words: PPC-1 tumor xenograft study in nude mice.
Description: Female 6-week-old nude mice were purchased from Charles River Laboratories. 5×10^6 PCC-1 cells suspended in 0.2 ml PBS were injected subcutaneously into a flank region of each nude mouse. Tumor bearing mice were size matched (200 mm^3) into treatment and control group, ear tagged, and monitored individually. Tumor volume was measured two to three times weekly by digital calipers (volume=length×width^2/2). All studies use 6 mice per group. […] Control mice received saline. The injections were given three times in first week, twice in second week and once in third week and a total of six injections were administered during the experiment. When all tumors of the control group exceed 2000 mm^3 in volume, the animal experiment was terminated. Tumor growth inhibition ratios (T/C %) were calculated by dividing the average tumor volume in the treatment group by the average tumor volume in the control group.
The target in data set [8] is T1, Bcl-XL. Description: 1D 1H-NMR binding assay against Bcl-XL. Set-up: key: +++: Very Active; ++: Active; +: Mild; −: Weak. The following applies: 4-point-rating scale, binding to Bcl-XL.
Target sequence in this assay (Q07817 whole entry): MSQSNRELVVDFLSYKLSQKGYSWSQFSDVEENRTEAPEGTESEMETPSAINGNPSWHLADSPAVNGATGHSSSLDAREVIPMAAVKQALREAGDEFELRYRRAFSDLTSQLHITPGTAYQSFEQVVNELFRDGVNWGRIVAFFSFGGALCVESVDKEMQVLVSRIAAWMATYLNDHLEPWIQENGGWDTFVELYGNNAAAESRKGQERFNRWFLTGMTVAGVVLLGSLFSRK
Data set [9] concerns the target Bcl-2 (Homo sapiens (Human), UniProt P10415). Description: Fluorescence polarization competitive binding assay (FPA), Bcl-2. The following applies: displacement of BH3 peptide.
Description: as §3
Data set [10] relates to primary CLL cells. In words: Annexin-V apoptosis assay, primary CLL cells. Type of data set: cell-based, human.
Description: (§5) The apoptotic activity of the compounds against RS4;11, BP3 and primary CLL cells was assessed by staining with Annexin V-FITC and propidium iodide (PI). Cells were cultured in RPMI 1640 medium (Mediatech Inc., Herndon, Va. 20171) containing 10% fetal bovine serum (Mediatech Inc., Herndon, Va. 20171) and Penicillin/Streptomycin (Mediatech Inc., Herndon, Va. 20171). […] The percentage of viable cells was determined by FITC-Annexin V- and propidium iodide (PI)-labeling, using an Apoptosis Detection kit (BioVision Inc.), and analyzing stained cells by flow cytometry (FACSort; Bectin-Dickinson, Inc.; Mountain View, Calif.). Cells that were annexin-V-negative and PI-negative were considered viable.
Data set [11] deals with T1, Bcl-XL. In words: Isothermal titration calorimetry (ITC), Bcl-XL. Type of data set: binding. In general terms: In ITC the heat of successive injections is recorded.
Target sequence in this assay (Q07817 whole entry): as above
For data set [12] the following is noted: administered orally (6a); cited from earlier work.
Data set [13] deals with Mcl-1 (Homo sapiens (Human), UniProt Q07820). In words: Fluorescence polarization competitive binding assay (FPA), Mcl-1. The following applies: displacement of BH3 peptide.
Description: as §3
Data set [14] is described as follows: In vitro microsomal stability. The following applies: Table 4.
Excerpt: as §4
In data set [15] the test system is RS4;11 cell line. In words: Annexin V-FITC and propidium iodide apoptosis assay, RS4;11. Type of data set: cell-based. The following applies: Homo sapiens, RS4-11, 24 h, 1 day.
Description: as §5
For data set [16], the system named is H460 cell line. In words: ATP-LITE cell viability assay, H460. It is filed as cell-based. The following applies: Homo sapiens, NCI-H460, 72 h, 3 days. Here is the method:
(§1) The activity of the compounds of Formula I against human cancer cell lines (PC3ML, H460, H1299, RS11846) may be assessed by using the ATP-LITE assay (PerkinElmer). All cells are seeded in either F12 or RPMI1640 medium with 5 mM L-glutamine supplemented with 5% fetal bovine serum (Mediatech Inc.), penicillin and streptomycin (Omega). For maintenance, cells are cultured in 5% FBS. Cells plated into 96 well plates at varying initial densities depending on doubling time. H460 and H1299 plated at 2000 cells/well, A549 and PC3 at 3000 cells/well, and […] at 10,000 cells/well. The compounds are diluted to final concentrations with 0.1% DMSO. Prior to dispensing the compounds onto cells, fresh 5% media is placed into the wells. Administration of compounds occurs 24 hours after seeding into the fresh media. Cell viability may be evaluated using ATP-LITE reagent (PerkinElmer) after 72 hours of treatment. Data are normalized to the DMSO control-treated cells using Prism version 5.01 (Graphpad Software).
(§2) The activity of the compounds against human cancer cell lines (PC3, H460, H1299) were assessed by using the ATP-LITE assay (PerkinElmer). All cells were seeded in either […] or RPMI1640 medium with 5 mM L-glutamine supplemented with 5% fetal bovine serum (Mediatech Inc.), penicillin and streptomycin (Omega). For maintenance, cells were cultured in 5% FBS. Cells plated into 96 well plates at varying initial densities depending on doubling time. H460 and H1299 plated at 2000 cells/well and PC3 at 3000 cells/well. Compounds were diluted to final concentrations with 0.1% DMSO. Prior to dispensing compounds onto cells, fresh 5% media was placed into wells. Administration of compounds occurred 24 hours after seeding into the fresh media. Cell viability was evaluated using ATP-LITE reagent (PerkinElmer) after 72 hours of treatment. Data were normalized to the DMSO control-treated cells using Prism version 5.01 (Graphpad Software).

Data set [17] has as its system H1299 cell line. Description: ATP-LITE cell viability assay, H1299. Type of data set: cell-based. The following applies: Homo sapiens, NCI-H1299, 72 h, 3 days. Here is the method:
as §1, §2

For data set [18], the system named is BP3 cell line. Description: Annexin V-FITC and propidium iodide apoptosis assay, BP3. It is filed as cell-based, human. The following applies: Homo sapiens, BP3, 24 h; Annexin V-FITC and propidium iodide assay, 1 day.
Description: as §5
Data set [19] relates to PC3 cell line. Description: ATP-LITE cell viability assay, PC3. It is filed as cell-based. The following applies: Homo sapiens, PC-3, 72 h, 3 days. Here is the method:
as §2

Data set [20] relates to H460 cell line. The following applies: pan-Bcl-2 family inhibitor from literature; cited from earlier work.

As usually defined, the EC50 is the midpoint of the concentration-response curve. Broadly, the IC50 is the point on the concentration scale where inhibition reaches its midpoint. For orientation: Kd means the free concentration of one partner at which half of the binding sites on the other are occupied at equilibrium, for simple one-to-one binding.

Bfl-1, sequence (Q16548 whole entry): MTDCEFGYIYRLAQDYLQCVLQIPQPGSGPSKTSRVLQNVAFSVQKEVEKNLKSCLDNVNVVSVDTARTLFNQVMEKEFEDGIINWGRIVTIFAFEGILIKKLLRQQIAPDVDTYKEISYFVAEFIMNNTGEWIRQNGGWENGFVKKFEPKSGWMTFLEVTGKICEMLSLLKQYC
Bcl-2, sequence (P10415 whole entry): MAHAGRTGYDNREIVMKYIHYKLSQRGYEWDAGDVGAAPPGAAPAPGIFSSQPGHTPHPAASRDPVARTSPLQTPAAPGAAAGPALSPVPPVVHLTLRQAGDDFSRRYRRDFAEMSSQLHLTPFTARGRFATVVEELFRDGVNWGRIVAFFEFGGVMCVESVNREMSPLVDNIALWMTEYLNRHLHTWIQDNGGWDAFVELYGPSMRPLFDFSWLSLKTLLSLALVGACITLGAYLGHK
Mcl-1, sequence (Q07820 whole entry): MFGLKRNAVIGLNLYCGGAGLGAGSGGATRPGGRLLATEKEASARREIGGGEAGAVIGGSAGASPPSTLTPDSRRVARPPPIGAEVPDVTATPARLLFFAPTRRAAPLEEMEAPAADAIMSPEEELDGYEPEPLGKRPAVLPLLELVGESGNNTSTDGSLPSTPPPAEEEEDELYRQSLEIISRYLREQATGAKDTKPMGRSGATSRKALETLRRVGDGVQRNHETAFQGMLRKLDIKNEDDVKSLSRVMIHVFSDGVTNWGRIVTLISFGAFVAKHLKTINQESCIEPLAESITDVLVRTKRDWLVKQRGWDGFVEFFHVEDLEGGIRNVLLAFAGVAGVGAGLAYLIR

As for `Cc1cc2c(C(C)C)c(O)c(O)cc2c(O)c1-c1c(C)cc2c(C(C)C)c(O)c(O)cc2c1O` [Apogossypol], the “degraded after 1 hour incubation in rat microsomal preparations” value was 36%. For the same compound, the “degraded after 1 hour incubation in rat plasma” value in data set [1] is recorded as 47%. In data set [2], the EC50 is 2800 nM. For the same compound, the “degraded after 60 days at room temperature” value in [3] is roughly 80%.

Turning to `CC1=C(C2=C(C)C(=O)c3c(cc(O)c(O)c3C(C)C)C2=O)C(=O)c2cc(O)c(O)c(C(C)C)c2C1=O` [Compound 6a, 6,6′,7,7′-tetrahydroxy-5,5′-diisopropyl-3,3′-dimethyl-2,2′-binaphthyl-1,1′,4,4′-tetraone, reference compound], the IC50 came out at 2170 ± 350 nM in data set [4], 630 ± 20 nM in data set [5], 370 ± 20 nM in [9] and 540 ± 30 nM in data set [13]. In addition, in [6] (1 h, rat plasma (preparations)), the “degraded after 1 hour incubation in rat plasma” value was 23%. Further, in data set [6], the “Plasma Stability (T = 40 mins)” value stood at 77%. Further, the “average body weight losses during the treatment” value in data set [7] (50 mg/kg i.p.) is 9.3%. For the same compound, in data set [7] (50 mg/kg i.p. three times in first week), the “weight loss in first week” value is recorded as roughly 5%. In addition, the “1D-1H NMR” value in data set [8] was “+++”. Besides, the “LD50 primary CLL samples” value in data set [10] (comparison of 6c with 6a) was greater than 30 µM; in data set [10] (two primary CLL samples, one day Annexin-V apoptosis assay) it was greater than 30 µM. This compound returned a Kd in data set [11] of 2800 nM. Also, the “maximum tolerated dose (MTD)” value in data set [12] is listed as “above 240 mg/kg”.

For the compound `CC1=C(C2=C(C)C(=O)c3c(cc(O)c(O)c3CC(C)C)C2=O)C(=O)c2cc(O)c(O)c(CC(C)C)c2C1=O` [Compound 6b, 6,6′,7,7′-tetrahydroxy-5,5′-diisobutyl-3,3′-dimethyl-2,2′-binaphthyl-1,1′,4,4′-tetraone], the IC50 is 1410 ± 110 nM in [4], 550 ± 60 nM in data set [5], 250 ± 20 nM in data set [9] and 470 ± 30 nM in data set [13]. Moreover, in data set [14], the “Microsomal Stability (T = 40 mins)” value was 69%. Further, the “Plasma Stability (T = 40 mins)” value in data set [6] was 98%. Besides, the “1D-1H NMR” value in [8] is listed as “+++”. In addition, binding in data set [11] was put at a Kd of 1500 ± 800 nM.

For `CC1=C(C2=C(C)C(=O)c3c(cc(O)c(O)c3CCc3ccccc3)C2=O)C(=O)c2cc(O)c(O)c(CCc3ccccc3)c2C1=O` [Compound 6e, 6,6′,7,7′-tetrahydroxy-3,3′-dimethyl-5,5′-diphenethyl-2,2′-binaphthyl-1,1′,4,4′-tetraone], the “Microsomal Stability (T = 40 mins)” value in data set [14] is on record as 89%. The “Plasma Stability (T = 40 mins)” value in data set [6] amounted to 81%. For the same compound, the concentration giving a half-maximal response (EC50) was found to be 4750 ± 10 nM in data set [15]; 1040 ± 130 nM in [16]; 850 ± 360 nM in [17]; 8720 ± 2530 nM in [18]; 1400 ± 140 nM in data set [19].

Turning to `COC1=CC(c2cc3ccccc3[nH]2)=N/C1=C\c1[nH]c(C)cc1C` [GX15-070], the IC50 in [20] was 3850 nM.
